{"source": "patent US8921569B2", "about": "“Rationally improved isoniazid and ethionamide derivatives and activity through selective isotopic substitution” (STC.UNM, priority 2007, dated 2014)", "key": {"M bovis BCG [1]": {"system": "M bovis BCG", "assay_type": "cell-based", "conditions": "O 1 micrograms per ml, 3 or 4 days after treatment, triplicate cultures"}, "M bovis BCG [2]": {"system": "M bovis BCG", "assay_type": "cell-based", "conditions": "O 1 micrograms per ml, cultures at day 4 plated out"}}}
{"smiles": "NN[13C](=O)c1ccncc1", "note": "[C13 INH, 4-pyridine-[^13C]carboxylic acid hydrazide]", "values": [{"measurement": "antimicrobial effects by cultures optical density, compared with 12C isoniazid", "setting": "M bovis BCG [1]", "result": "significant increase in activity"}, {"measurement": "activity by CFU (colony forming units), compared with 12C isoniazid", "setting": "M bovis BCG [2]", "result": "marked expected increase in activity"}]}
